Experimental data from ChEMBL document CHEMBL6114992, “Design, synthesis, biological evaluation, and mechanism of action of new pyrazines as anticancer agents in vitro and in vivo” (Bioorg Med Chem, 2025).
Calls of active or inactive are those of the source. No cut-off for these calls is given here.

Experiments:
U-937 [1] = test: Induction of apoptosis in human U-937 cells assessed as change in mitochondrial membrane potential at 2.5 uM incubated for 48 hrs by JC-1 staining based flow cytometry (reference value: 2.20 %); assay type: functional
U-937 [2] = test: Downregulation of Bcl-2 expression in human U-937 cells incubated for 48 hrs by Western blot analysis; assay type: functional, cell-based
U-937 [3] = test: Upregulation of p21 expression in human U-937 cells incubated for 48 hrs by Western blot analysis; assay type: functional, cell-based
[4] = Toxicity in nude mouse xenografted with human SK-OV-3 cells assessed as body weight change at 30 to 60 mg/kg, ip qd treated for 14 days; assay type: organism-based; conditions: in vivo, 336 h, dose 30-60 mg/kg, time 14 day
SK-OV-3 = test: Antitumor activity against human SK-OV-3 cells xenografted in nude mouse assessed as reduction cell proliferation at 30 to 60 mg/kg, ip qd treated for 14 days by Ki67 staining based IHC analysis; assay type: functional, organism-based; conditions: dose 30-60 mg/kg, time 14.0 day
KG-1 [5] = test: Downregulation of Bcl-XL expression in human KG-1 cells incubated for 48 hrs by Western blot analysis; assay type: functional, cell-based; conditions: dose 0.5-2.5 µM
KG-1 [6] = test: Downregulation of YAP1 expression in human KG-1 cells incubated for 48 hrs by Western blot analysis; assay type: functional, cell-based; conditions: dose 0.5-2.5 µM
THP-1 = test: Downregulation of c-Myc expression in human THP-1 cells incubated for 48 hrs by Western blot analysis; assay type: functional, cell-based; conditions: dose 0.5-2.5 µM
[7] = molecular target: Signal transducer and activator of transcription 3 (Homo sapiens) (UniProt P40763); test: Inhibition of STAT3 phosphorylation in human SK-OV-3 cells at 0.5 to 2.5 uM incubated for 48 hrs by Western blot analysis; assay type: cell-based; conditions: dose 0.5-2.5 µM
Sequence of Signal transducer and activator of transcription 3 (Homo sapiens) (P40763 whole entry): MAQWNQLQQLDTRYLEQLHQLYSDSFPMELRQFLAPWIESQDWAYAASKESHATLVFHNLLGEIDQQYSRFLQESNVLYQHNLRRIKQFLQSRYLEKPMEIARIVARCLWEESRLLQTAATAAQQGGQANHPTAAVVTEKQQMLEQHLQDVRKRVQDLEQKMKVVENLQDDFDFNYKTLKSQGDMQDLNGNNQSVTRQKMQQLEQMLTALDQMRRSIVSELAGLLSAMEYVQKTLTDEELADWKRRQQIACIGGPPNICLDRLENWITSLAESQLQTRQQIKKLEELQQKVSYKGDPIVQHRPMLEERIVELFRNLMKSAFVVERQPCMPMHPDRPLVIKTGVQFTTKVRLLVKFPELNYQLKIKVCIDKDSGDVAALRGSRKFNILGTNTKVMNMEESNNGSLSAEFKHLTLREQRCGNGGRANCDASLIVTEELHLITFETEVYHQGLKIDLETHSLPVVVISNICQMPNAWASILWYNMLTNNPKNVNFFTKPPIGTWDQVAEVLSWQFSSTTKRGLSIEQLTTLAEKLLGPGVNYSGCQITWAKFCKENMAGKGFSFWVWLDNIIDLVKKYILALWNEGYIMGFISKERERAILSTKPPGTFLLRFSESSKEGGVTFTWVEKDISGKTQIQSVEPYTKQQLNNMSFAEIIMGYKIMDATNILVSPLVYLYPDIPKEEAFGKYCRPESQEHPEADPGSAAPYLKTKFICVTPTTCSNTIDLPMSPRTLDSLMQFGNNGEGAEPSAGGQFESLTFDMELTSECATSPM

KG-1 [8] = test: Downregulation of c-Myc expression in human KG-1 cells incubated for 48 hrs by Western blot analysis; assay type: functional, cell-based; conditions: dose 0.5-2.5 µM

inhibition [7] | SMILES | Activity (U-937 [1]) | Activity (U-937 [2]) | Activity (U-937 [3]) | Activity [4] | Activity (SK-OV-3) | Activity (KG-1 [5]) | Activity (KG-1 [6]) | Activity (THP-1) | Activity (KG-1 [8])
 | Cc1nccnc1C(=O)/C=C/c1cccc(C#N)c1 | 4.53% | Dose-dependent-effect | Dose-dependent-effect | Non-toxic | Active |  |  |  | 
Active | CCc1nccnc1C(=O)/C=C/c1ccccn1 |  |  |  |  |  | Dose-dependent-effect | Dose-dependent-effect | Dose-dependent-effect | Dose-dependent-effect
